# Ends that are not written are not given here.
# What was measured:
# dengue virus type 2 = conditions: read-out: EC50 against dengue virus (DENV); plaque assay
# HEK cells [1] = assay: Cytotoxicity with varying serum (FBS) concentrations, HEK cells; conditions: 0-50% FBS
# Vero E6 cells = assay: Cytotoxicity assay, CELLTITER-GLO, Vero E6 cells; conditions: peptide concentrations at or below 2 μM, about 72 hours
# [2] = system: Lassa pseudovirus (LASVpv); conditions: 1 h
# HEK cells [3] = assay: Cytotoxicity with varying cell densities, HEK cells; conditions: 5×10^3 to 1×10^5 cells/well
# human adenovirus 5 = conditions: read-out: EC50 against adenovirus (AdV); plaque assay
# [4] = system: herpes simplex virus type 1; conditions: read-out: EC50 against herpes simplex virus (HSV); plaque assay
substance,measurement,setting,value
RRGWLLLRLLRLLLRLLWGRR-NH2 [AHR],EC50,dengue virus type 2,310 nM
same,effect of serum concentration on cytotoxicity,HEK cells [1],cytotoxic in all serum concentrations at high peptide concentrations
same,"cell viability, Vero E6 cells",Vero E6 cells,High cell viability
same,EC50,[2],< 10000 nM
same,inhibition of LASVpv at 50 μM peptide,[2]; 50 μM,approximately 100%
same,effect of cell density on cytotoxicity,HEK cells [3],increases as cell density increases
same,EC50,human adenovirus 5,1100 nM
same,EC50,[4],157 nM

# Source: patent US20230220010A1, “BROAD-SPECTRUM ANTIVIRAL PEPTIDES” (priority 2020, published 2023)
